Reference: PubChem BioAssay (NCI)
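How tested: cells in 96-well plates exposed to compound for 48 hours at five concentrations. GI50 marks 50% less growth. TGI: concentration producing complete growth inhibition.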

Experiments:
Assay in all cases: NCI tumour cell line growth inhibition, 48 h
[1] = test system: HCT-15 colon
[2] = test system: UACC-62 melanoma
[3] = test system: T-47D breast
[4] = test system: NCI-H226 lung
[5] = test system: HCC-2998 colon
[6] = test system: 786-0 renal
[7] = test system: KM12 colon
[8] = test system: SF-539 CNS
[9] = test system: SK-OV-3 ovarian
[10] = test system: K-562 leukemia

SMILES | TGI [1] [µM] | TGI [2] [µM] | TGI [3] [µM] | TGI [4] [µM] | TGI [5] [µM] | TGI [6] [µM] | TGI [7] [µM] | TGI [8] [µM] | TGI [9] [µM] | TGI [10] [µM] | GI50 [8] [µM]
CN(C)CCCNc1c(O)c2c(c(O)c1Cl)C(=O)C=CC2=O | 3.28 | 3.18 | 4.28 | > 10 | 3.22 | 3.25 | > 10 | 3.22 | > 10 | > 10 | –
COc1ccc(/C=C2\C=Cc3ccccc32)cc1OC | > 100 | > 100 | > 100 | > 100 | > 100 | > 100 | > 100 | > 100 | > 100 | > 100 | –
CCN(CC)C(=S)SS(=O)(=O)c1ccccc1C(=O)O | > 100 | > 100 | > 100 | > 100 | > 100 | > 100 | > 100 | > 100 | > 100 | > 100 | –
Cc1ccc(S(=O)ON2CCC(C(=O)O)(c3ccccc3)CC2)cc1 (stereo unspecified) | > 100 | > 100 | > 100 | > 100 | > 100 | > 32.2 | > 100 | > 100 | > 100 | > 100 | > 100
CCCCCCCCC[C@@H]1C[C@@H]2CCC3C(C(=O)OC)=C(C)NC(=N1)N32 (stereo partly specified) | 38.3 | 17.4 | 25.3 | 29.2 | 8.53 | 18.9 | 14 | 12.2 | 25 | 72.2 | –
COc1ccc2c(c1)C(N)CC2=O (stereo unspecified) | > 100 | > 100 | > 100 | > 100 | > 100 | > 100 | > 100 | > 100 | > 100 | > 100 | –
Brc1cccc(/C=C/CN2CCN(CCOC(c3ccccc3)c3ccccc3)CC2)c1 | 40.1 | 31.8 | 18.6 | 38.2 | 21.3 | 31.7 | 31.3 | 32.4 | 34.9 | 28.6 | –
C/C(=N/NC(=S)Nc1ccccc1Cl)c1ccccn1 | 18 | 7.49 | 6.82 | 1.65 | 18.1 | 15.8 | 18.7 | 7.56 | 13.7 | 3.25 | –
c1ccc(N=C2c3ccccc3CN2c2ccccc2)cc1 | > 100 | > 100 | > 100 | > 100 | > 100 | > 100 | > 100 | > 100 | > 100 | > 100 | –
S=c1ssc2c3ssc(=S)c3n(Cc3ccccc3)c12 | > 100 | > 100 | > 100 | > 100 | > 100 | > 100 | > 100 | 58.9 | > 100 | > 100 | –
COc1ccc(OC)c(C2CCc3nc4nc(N)nc(N)c4cc3C2)c1 (stereo unspecified) | 47.5 | 4.18 | 3.78 | 30.7 | 3.16 | 6.91 | 5.14 | 17.8 | 15.3 | 6.35 | –
CCOC(=O)c1nc2cc(N3CCOCC3)c(F)cc2[nH]c1=O | > 100 | > 100 | > 100 | > 100 | > 100 | > 100 | > 100 | > 100 | > 100 | > 100 | –
COc1c2c(c(OC)c3c1c(=O)c1ccccc1n3C)OCO2 | > 100 | > 100 | > 100 | > 100 | > 100 | > 100 | > 41.9 | > 90.7 | > 100 | > 100 | –
Clc1ccc(-c2nn3c(CCCCCCCCc4nnc5sc(-c6ccc(Cl)cc6)nn45)nnc3s2)cc1 | > 100 | > 100 | 34 | > 100 | > 100 | 60 | 61.3 | 52.6 | > 90.4 | > 100 | –
CCC1(C)C=Cc2c(cc(OC)c3c(=O)c4ccccc4n(C)c23)O1 (stereo unspecified) | > 10 | > 10 | > 10 | > 10 | > 10 | > 10 | > 10 | > 10 | > 10 | > 10 | –
CCOC(=O)c1c(C)n(Cc2ccccc2)c(=O)c2ccccc2c(=O)c2c(=O)ccc(=O)c1=2 | > 100 | > 100 | 86.3 | > 100 | > 100 | 75.3 | > 100 | > 100 | > 100 | > 100 | –
CCOC(=O)CN1CCNCCN(CC(=O)OCC)CCNCC1 | > 100 | > 100 | > 100 | > 100 | > 100 | > 100 | > 100 | > 100 | > 100 | > 100 | –
CCOc1c2ccsc2c(OCC)c2ccsc12 | > 30.7 | > 100 | > 100 | > 100 | > 75.5 | > 100 | > 100 | 9.79 | > 100 | > 100 | –
CCOC(=O)c1cc2cc(N(C(C)=O)C(C)=O)ccc2s1 | > 100 | > 100 | 81.3 | 47.8 | > 100 | > 100 | > 100 | 92.3 | > 100 | 87 | –
CCOP(=O)(OCC)C(NC(=O)OCC(Cl)(Cl)Cl)n1nnc(C(=O)OC)c1C(=O)OC (stereo unspecified) | > 100 | > 100 | > 100 | > 100 | > 100 | > 100 | > 100 | > 100 | > 100 | > 100 | –
NCc1ccc(-c2ccc(-c3ccc(-c4ccc(CN)s4)s3)s2)s1 | > 100 | > 100 | > 100 | > 100 | > 100 | > 100 | > 100 | > 100 | > 100 | > 100 | –
Cc1ccc(/C=C2\CN(C)CC3=C2OC(N)=C(C#N)C3c2ccc(C)cc2)cc1 (stereo unspecified) | 42.9 | 89.1 | 71.2 | 72.4 | 37.2 | 32 | 39.3 | > 100 | 35.3 | > 100 | –
C[C@]12CC[C@@H]3c4ccc(O)cc4CC[C@H]3[C@@H]1C/C(=C\c1ccc([N+](=O)[O-])cc1)C2=O | > 100 | > 100 | > 100 | > 100 | > 100 | > 100 | > 100 | 75 | > 100 | > 100 | –
C=C(O)c1ccccc1C#Cc1ccccc1C(=O)OC | > 10 | > 10 | > 10 | > 10 | > 10 | > 10 | > 10 | > 10 | > 10 | > 10 | –
Cn1c(=O)oc2cc(C(=O)CSC(=S)N3CCCCCC3)ccc21 | > 100 | > 100 | > 100 | > 100 | > 100 | > 100 | > 100 | > 100 | > 100 | > 100 | –
c1ccc2c(c1)ccc1nc(-c3ccc4c(c3)OCO4)c3c(c12)CCCC3 | > 100 | 82 | 94.5 | > 100 | > 100 | > 100 | 24.2 | 34.2 | > 100 | > 100 | –
CCCC1NC(=O)C(CC(C)C)NC(=O)c2cccc(n2)C(=O)NC(CC(C)C)C(=O)NC(CCC)C(=O)NC(C(=O)OC)CCCCNC1=O (stereo unspecified) | > 100 | 51.5 | > 100 | 71.4 | 41.7 | > 100 | 59.3 | 45.1 | 91.5 | 53.7 | –
